Measurements as given in PubChem BioAssay AID489024 (Sanford-Burnham Center for Chemical Genomics, 2010).
Activity calls are given as the source filed them.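 Rule for the calls: active = compounds whose mean EC50, the dose giving half the maximal reporter activation, is at or below a set limit; inactive = the rest.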

Each molecule was assayed against CHO-CHOP luciferase reporter, UPR activation, luminescence (assay: CHOP reporter induction, apoptotic UPR branch – CHO-CHOP cells, luciferase luminescence, confirmation (AID 489024);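 note: compounds added alone to reporter cells with no tunicamycin stress co-treatment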).

Row | SMILES | EC50
1 | Cc1ccc(-c2nc(NC(=O)c3nn(C)cc3[N+](=O)[O-])sc2C)cc1C | 6.33 µM
2 | CCOC(=O)c1sc(N(Cc2ccccc2)C(=O)CCl)nc1C | 7.96 µM
3 | C/C(=N\NC(=O)c1ccccc1OCc1ccc(F)cc1)c1ccccn1 | 4.89 µM
4 | O=C(CCl)Nc1cccc(S(=O)(=O)NC2=NCCCCC2)c1 | 17.8 µM
5 | Cc1cccc(CS(=O)(=O)c2ncc(Cl)c(C(=O)Nc3ccc(F)cc3)n2)c1 | 9.1 µM
6 | CCCCCC(=O)Nc1ccc(C(=O)N/N=C/c2ccc([N+](=O)[O-])cc2)cc1 | inactive
7 | Cc1ccc(S(=O)(=O)Nc2cccc3cccnc23)cc1 | 4.41 µM
8 | O=C(Nc1nc2ccc(F)cc2s1)c1ccccn1 | 7.16 µM
9 | COc1ccc(OC)c(N=Cc2c(O)c3ccccc3oc2=O)c1 | 7.55 µM
10 | CC(C)CNC(=O)c1coc(=O)c(Br)c1 | 12 µM
11 | Cc1ccccc1NC(=O)c1ccc(N/N=C/c2ccccc2O)c([N+](=O)[O-])c1 | 9.06 µM
12 | COc1ccc(Cn2c(SCc3ccc(C)cc3)nc3cc(OC)c(OC)cc3c2=N)cc1Cl | 14 µM
13 | O=C(Nc1cccc(S(=O)(=O)N2CCCCC2)c1)c1ccc([N+](=O)[O-])o1 | 5.08 µM
14 | Cc1nc(NC(=O)/C=C/c2ccccc2)n[nH]1 | > 80 µM (inactive)
15 | Cn1nc([N+](=O)[O-])c(C(C#N)c2ccccn2)c(Cl)c1=O (stereo not drawn) | > 80 µM (inactive)
16 | COc1cc([N+](=O)[O-])cc(/C=N/NC(=O)c2ccc(NC(=O)c3ccc(C)cc3)cc2)c1O | 12.3 µM
17 | O=C(COC(=O)c1ccccc1C(=O)c1ccc(Cl)c([N+](=O)[O-])c1)NC1CCCCCC1 | > 80 µM (inactive)
18 | O=[N+]([O-])c1ccc(C=Nc2ccc(Cl)c([N+](=O)[O-])c2)s1 | > 80 µM (inactive)
19 | O=C1Nc2ccccc2/C1=C/C(=O)c1cccs1 | 14.4 µM
20 | COc1ccc(OC)c(/C=C/C(=O)N2C(=O)c3cccc(N)c3C2=O)c1 | inactive
21 | Cc1cc(N2CCN(c3ccc([N+](=O)[O-])c4cccnc34)CC2)c2ccccc2n1 | inactive
22 | O=C1C=CC(=O)C(C2=C3C(=O)N(CCc4ccccc4)CC(=O)N3CCC2)=C1 | 9.95 µM

Row | SMILES | EC50
23 | CSC(=S)N/N=C(\C)c1ccccc1 | 12.3 µM
24 | O=C(N/N=C/c1cccc([N+](=O)[O-])c1)c1cc2c(ccc3ccccc32)o1 | > 80 µM (inactive)
25 | CCCOc1ccc(N2C(=O)CC(N(O)c3ccccc3)C2=O)cc1 (stereo not drawn) | 7.23 µM
26 | COc1ccc(C2c3ccc4ccccc4c3Oc3ncn(CCCN(C)C)c(=N)c32)cc1 (stereo not drawn) | 6.82 µM
27 | COc1ccc(C(=O)C(CN2CCOCC2)c2ccccc2)cc1 (stereo not drawn) | inactive
28 | Oc1ccc(CN2CCc3ccccc3C2)c2cccnc12 | 13.8 µM
29 | Oc1ccc(/C=N/Nc2ccnc3cc(Cl)ccc23)cc1O | 6.62 µM
30 | COc1cc(C(=O)Oc2c(CN3CCOCC3)cc(Cl)c3cccnc23)cc(OC)c1OC | inactive
31 | Brc1ccc(-c2ccc(/C=N/Nc3nncc(-c4ccccc4)n3)o2)cc1 | 19 µM
32 | Cc1ccc2oc(Nc3nc(-c4ccccc4)cc(=O)[nH]3)nc2c1 | 7.41 µM
33 | Oc1ccc(-c2nc(-c3ccc(O)c(O)c3)cs2)cc1 | 9 µM
34 | O=C(N/N=C\c1cc2c(cc1Cl)OCO2)c1ccc(Br)s1 | > 80 µM (inactive)
35 | O=C(N/N=C/c1ccccn1)c1sc2ccccc2c1Cl | 7.31 µM
36 | C/C(=N\NC(=O)c1cc(Br)ccc1O)c1ccccn1 | 6.67 µM
37 | Cc1ccc(Cc2cnc(NC(=O)/C(C#N)=C/c3ccc(-c4cccc([N+](=O)[O-])c4)o3)s2)cc1 | 14.7 µM
38 | Cc1ccc(CN2CCN(/N=C/c3ccc(O)c(O)c3)CC2)cc1 | 3.64 µM
39 | COc1cc(/C=C2\C(=O)ON=C2c2ccc(Cl)cc2)ccc1O | 11.8 µM
40 | O=C1Nc2ccccc2/C1=C\C(=O)c1ccccc1 | 14.2 µM
41 | N#C/C(=C\c1ccc([N+](=O)[O-])o1)C(=O)Nc1ccc(F)cc1 | 17.1 µM
42 | COc1cc(/C=C/C(=O)N2C(=O)c3cccc(N)c3C2=O)cc(OC)c1OC | > 80 µM (inactive)
43 | CN1CCN(c2ccc(NC(=O)c3ccc([N+](=O)[O-])o3)cc2Cl)CC1 | 0.42 µM
44 | COc1ccc(/C=C2\CN(Cc3ccccc3)C/C(=C\c3ccc(OC)c(O)c3)C2=O)cc1O | 2.75 µM

Row | SMILES | EC50
45 | O=C(/C=C/c1ccc([N+](=O)[O-])cc1)/C=C/c1ccco1 | 6.61 µM
46 | Cc1ccc(-c2nnc(-c3ccc(NC(=O)c4cccs4)cc3)o2)cc1 | 16 µM
47 | Cc1ccc(/C=C2\CCC3=C2OC(N)=C(C#N)C3c2ccc(C)cc2)cc1 (stereo not drawn) | 4.55 µM
48 | COc1cc(C(=O)Nc2nc(-c3ccc(Cl)cc3)c(C)s2)ccc1OCC(=O)Nc1ccc(F)cc1 | 13.3 µM
49 | CCn1cc(C(=O)NC(=S)Nc2sc3c(c2C(=O)OC)CCCCCC3)cn1 | inactive
50 | CCc1cccc2c(C(=O)CCl)c[nH]c12 | 15.7 µM
51 | Oc1ccc(/C=N/Nc2ncnc3c2ncn3Cc2ccccc2)cc1O | 13.1 µM
52 | Cc1cc(C(=O)c2ccc(Cl)cc2)c(NC(=O)CCl)s1 | 16.4 µM
53 | COc1cc(C(=O)Sc2ccc(Cl)cc2)cc(OC)c1OC | 15 µM
54 | CC(NC(=O)CN(c1cccc(C(F)(F)F)c1)S(=O)(=O)c1ccc(Cl)c([N+](=O)[O-])c1)c1ccccc1 (stereo not drawn) | 8.07 µM
55 | Cc1ccc(-c2csc3ncnc(Sc4nnc(CN5CCCCCC5=O)o4)c23)cc1 | 17.3 µM
56 | COc1ccccc1-c1cc(C(F)(F)F)nc(S(=O)(=O)CCCC(=O)N2CCCCC2C)n1 (stereo not drawn) | 7.68 µM
57 | Cc1ccc(Sc2ccc(/C=C3/C(=O)NN(c4ccccc4)C3=O)o2)cc1 | inactive
58 | O=C(Nc1nc(-c2ccccn2)cs1)c1ccc(Br)s1 | 8.23 µM
59 | O=C(Nc1nc(-c2ccc3ccccc3c2)cs1)c1ccc(N2C(=O)CCC2=O)cc1 | > 80 µM (inactive)
60 | COc1ccccc1C(=O)NC(=S)NNC(=O)c1sc2ccccc2c1Cl | inactive
61 | CCOC(=O)C(=CNc1nc(-c2ccccc2)c(C(=O)Nc2ccc(-c3ccccc3)cc2)s1)C(=O)OCC | inactive
62 | O=C(c1ccc(Cl)cc1)C(CN1CCCC1)c1ccccc1 (stereo not drawn) | 14.3 µM
63 | CCOc1ccc(-c2nnc(SCC(=O)Nc3ccc4c(c3)c3ccccc3n4CC)n2N)cc1 | 12.6 µM
64 | Cc1ccccc1/C=C/C(=O)c1ccc([N+](=O)[O-])o1 | 9.86 µM
65 | Oc1ccc(CN2CCC(Cc3ccccc3)CC2)c2cccnc12 | 5.4 µM
66 | COc1cc([C@H]2c3[nH]c4ccccc4c3C[C@H]3C(=O)N4[C@@H](c5cc(OC)c(OC)c(OC)c5)c5[nH]c6ccccc6c5C[C@H]4C(=O)N23)cc(OC)c1OC | 11.3 µM

Row | SMILES | EC50
67 | O=c1[nH]c(=S)n(C2CC2)c(O)c1C=Nc1cccc(C(F)(F)F)c1 | > 80 µM (inactive)
68 | C/C(CCC12CC3CC(CC(C3)C1)C2)=N\NC(N)=S | 16.5 µM
69 | Oc1ccc(-c2csc(Nc3cccc4ccccc34)n2)cc1O | 3.19 µM
70 | C=CCNC(=S)N/N=C(\C)c1ccccn1 | 2.5 µM
71 | CC(=O)Nc1ccc(N=Cc2c(O)c(C(=O)Nc3ccccc3)cc3ccccc23)cc1 | inactive
72 | Oc1ccc(-c2csc(-c3ccccc3)n2)cc1O | 5.57 µM
73 | CCc1cc2c(=O)c(-c3cnn(-c4ccccc4)c3)c(C)oc2cc1OCC(=O)Nc1cccc(C)c1 | 15.1 µM
74 | Cc1cc(NC(=O)c2cc(-c3ccccn3)nc3ccc(Br)cc23)no1 | > 80 µM (inactive)
75 | Cc1ccc(Sc2c([N+](=O)[O-])c(=O)n(C)c3ccccc23)cc1 | > 80 µM (inactive)
76 | Cc1cccc(Nc2nc(-c3ccccn3)cs2)n1 | 10.8 µM
77 | C/C(=N\NC(=O)c1cccc(Br)c1)c1ccccn1 | 2.36 µM
78 | COc1cccc(N=Nc2ccc(O)c3ncccc23)c1 | 12.7 µM
79 | N#C/C(=C\c1ccc(OCc2ccccc2)cc1)C(=O)Nc1nc2c(s1)CCN(Cc1ccccc1)C2 | inactive
80 | CCOc1cc(/C=N/NC(N)=S)cc(Br)c1OCc1ccccc1C | inactive
81 | O=C(NC1CCCC1)C(c1ccc(Cl)cc1)N(Cc1ccc(F)cc1)C(=O)CCl (stereo not drawn) | 8.34 µM
82 | O=C(Nc1ccc2oc(-c3ccc4ccccc4c3)nc2c1)c1ccc2c(c1)OCCO2 | 19.8 µM
83 | CCCCCOc1ccc(N2C(=O)CC(N(O)c3ccccc3)C2=O)cc1 (stereo not drawn) | 12.3 µM
84 | COc1ccccc1-c1cc(C(F)(F)F)nc(S(C)(=O)=O)n1 | 9.21 µM
85 | COc1cccc(N=Cc2c(O)c3ccccc3oc2=O)c1 | 8.69 µM
86 | C/C(=N\NC(=O)C(C)Oc1ccc([N+](=O)[O-])cc1)c1ccccn1 (stereo not drawn) | 10.1 µM
87 | O=C(COc1ccc(/C=N/NC(=O)c2cc3ccccc3o2)cc1Br)Nc1ccccc1 | 3.83 µM
88 | COc1cc(C(Nc2ccccn2)c2ccc3ccc(C)nc3c2O)cc(OC)c1O (stereo not drawn) | 6.83 µM

Row | SMILES | EC50
89 | C/C(=N\NC(=O)c1cc2ccccc2cc1O)c1ccccn1 | 3.71 µM
90 | COc1ccc(C2Nc3ccc4ccccc4c3-c3c2c(=O)oc2ccccc32)cc1 (stereo not drawn) | > 80 µM (inactive)
91 | O=C(NCc1ccccc1Cl)c1cccc2c1C(=O)c1ccc(-c3ccc(OC(F)(F)F)cc3)cc1S2(=O)=O | > 80 µM (inactive)
92 | O=c1c2ccccc2nc(/C=C/c2ccc([N+](=O)[O-])o2)n1-c1ccc(O)cc1 | 13.3 µM
93 | Oc1ccc(/C=N/Nc2ccc(C(F)(F)F)cn2)cc1O | 5.89 µM
94 | CC(=O)Oc1ccc(OC(C)=O)c(SCCCCCN2CCOCC2)c1 | 16.1 µM
95 | O=C(/C=C/Sc1ccc(C(F)(F)F)cn1)c1ccccc1 | 7.85 µM
96 | COc1ccccc1-c1nnc(Nc2nc3c(OC)cccc3s2)o1 | 2.48 µM
97 | CCNc1ccccc1CP(=O)(c1ccccc1)c1ccccc1O (stereo not drawn) | 15 µM
98 | CC(C)c1ccc(NC(=O)/C(C#N)=C/c2ccncc2)cc1 | 13.6 µM
99 | O=C(N/N=C(\c1ccccc1)c1cccnc1)c1cccc(F)c1 | 9.74 µM
100 | C[C@@H]1C[C@@H]2O[C@H]2/C=C\C=C\C(=O)Cc2c(Cl)c(O)cc(O)c2C(=O)O1 | 5.32 µM
101 | O=S(=O)(c1ccc(Cl)cc1)c1snnc1-c1ccccc1 | 11.1 µM
102 | O=S(=O)(CCSc1nc2ccccc2s1)c1nc2ccccc2s1 | 11.6 µM
103 | Cc1ccc(Sc2nc(-c3ccccc3)nnc2C(F)(F)F)cc1 | > 80 µM (inactive)
104 | Cc1ccccc1CS(=O)(=O)c1ncc(Cl)c(C(=O)Nc2ccc(F)cc2)n1 | > 80 µM (inactive)
105 | Clc1ccc(-c2ccc(/C=N/Nc3nncc(-c4ccccc4)n3)o2)cc1 | 15.6 µM
106 | O=C(N/N=C/c1ccccn1)c1cc(-c2ccccc2)nc2ccccc12 | 5.91 µM
107 | COc1ccc(/C=C/C(=O)Oc2ccc(C)cc2)cc1 | inactive
108 | Cc1coc2c1C(=O)C(=O)c1c-2ccc2c(C)cccc12 | > 80 µM (inactive)
